Measurements as given in publication PMC12518634, “The noncanonical function of liver-type phosphofructokinase potentiates the efficacy of HDAC inhibitors in cancer” (Signal Transduction and Targeted Therapy, 2025).
Where a name gives a salt, the structure may show the parent alone. Read-outs that look alike come from different tables or passages of the source.

Key:
1405R3 = assay: High-throughput drug screen, CellTiter-Glo viability, 72 h; format: cell-based, human; set-up: AUC: scale not given here; details: for AUC: area under the dose-response curve; for MIN: lower asymptote of fitted dose-response curve; for SLOPE: slope of fitted dose-response curve; for EC50: CellTiter-Glo viability, 72 h, fitted dose-response curve, Min.Conc.tested 1, Max.Conc.tested 10000, GI50, read-out: EC50
Summary of the method: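 Responses are drug sensitivity scores (efficacy cutoff ≥10), fitted from CellTiter-Glo luminescence. Each drug was given at five concentrations (10 to 0.001 μM, tenfold steps) in duplicate for 72 h. Cells were plated at 3000/well 24 h before dosing.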

783C-6 = assay: as above; format: cell-based, human; set-up: AUC: scale not given here; details: for DSS: DSS of DSRT analysis; for AUC: area under the dose-response curve; for MIN: minimum of dose-response curve; for SLOPE: slope of fitted dose-response curve; for EC50: 72 h, read-out: EC50
Summary of the method: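 Cholangiocarcinoma cells were seeded at 3000/well in 384-well plates and dosed after 24 h. Drugs were tested at 10, 1, 0.1, 0.01 and 0.001 μM in duplicate for 72 h, with viability read by CellTiter-Glo luminescence.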

[1] = 1405R3 DSRT analysis, drug sensitivity score
[2] = Homo sapiens, 1405R3 DSRT analysis

SMILES	AUC (1405R3; 1405R3 DSRT analysis)	DSS (1405R3; [1])	MIN (1405R3; 1405R3 DSRT analysis)	SLOPE (1405R3; 1405R3 DSRT analysis)	DSS (783C-6; 783C-6 cells)	AUC (783C-6; 783C-6 cells)	MIN (783C-6; 783C-6 cells)	SLOPE (783C-6; 783C-6 cells)	EC50 (1405R3; [2])	EC50 (783C-6; Homo sapiens)	DSS (1405R3)	EC50 (1405R3; 1405R3 DSRT analysis)	EC50 (783C-6; 783C-6 cells, DSRT analysis, CellTiter-Glo viability, concentrations tested 1 to 10000 (unit inferred), GI50)
CCCC(=O)[O-].[Na+] [Sodium butyrate]	0.1	0	100	-0.1	0	0.1	100	-0.1	–	–	–	–	–
CNC(=O)c1cc(Oc2ccc(NC(=O)Nc3ccc(Cl)c(C(F)(F)F)c3)cc2)ccn1 [Sorafenib Tosylate]	36.2	3.8	14	–	3.4	31.4	–	–	3940 nM	2190 nM	–	–	–
O=C1CCc2c(ccc3ccccc23)O1 [Splitomicin]	3.1	0	95.1	–	0	7.8	95	–	–	–	–	–	–
O=C(CCCCCCC(=O)NO)NO [Suberohydroxamic acid]	0.5	0	98	–	0	1.4	95.2	–	–	–	–	–	–
Cl.Cn1cc(C(=O)Nc2ccc([C@@H]3C[C@H]3NCC3CC3)cc2)cn1 [T-3775440 HCl]	0.3	0	97.3	-2.5	0	15	90.4	-0.1	–	–	–	–	–
C=CC(=O)N1CC[C@H](n2nc(C#Cc3cc(OC)cc(OC)c3)c3c(N)ncnc32)C1 [TAS-120]	7.2	0	91.3	–	0	1.7	94.4	–	–	–	–	–	–
N#Cc1c(-c2ccccc2)cc(-c2cc(Br)ccc2O)[nH]c1=O [TCS PIM-1 1]	2.3	0	96.8	-0.4	0	5.4	92.2	-0.4	–	–	–	–	–
CC(C)(CNC(=O)c1cccc(-c2noc(C(F)(F)F)n2)c1)c1coc(-c2ccccc2)n1 [TMP195]	1.1	0	97.2	-0.8	0	1.4	96	-0.9	–	–	–	–	–
O=C(NCC1(c2nc(-c3ccccc3)cs2)CCOCC1)c1cccc(-c2noc(C(F)(F)F)n2)c1 [TMP269]	24.8	0	87	-0.2	2.5	50.1	84.2	-0.3	–	–	–	–	–
CC(=O)Nc1ccc(C(=O)Nc2ccccc2N)cc1 [Tacedinaline]	9.7	0.6	76.8	–	0.3	7.5	82.2	–	–	–	–	–	–
COc1cccc2c1c(O)c(C(=O)N(C)c1ccc(C(F)(F)F)cc1)c(=O)n2C [Tasquinimod]	0.1	0	100	–	0	1.7	96	–	–	–	–	–	–
CCN(c1cc(-c2ccc(CN3CCOCC3)cc2)cc(C(=O)NCc2c(C)cc(C)[nH]c2=O)c1C)C1CCOCC1 [Tazemetostat]	12.2	0	92.1	–	0	14.4	90.7	–	–	–	–	–	–
CCCCCCCCCCCCCC(=S)NCCCC[C@H](NC(=O)OCc1ccccc1)C(=O)Nc1ccccc1 [Thiomyristoyl]	18.7	0	87.9	-0.1	0	2.1	92.9	-1	–	–	–	–	–
Cn1c(CCCCCCC(=O)NO)nc2cc(N(CCCl)CCCl)ccc21 [Tinostamustine]	56	6.3	10	–	7.1	62.6	3.7	–	2420 nM	2260 nM	–	–	–
Cc1cc(Nc2cc(N3CCN(C)CC3)nc(Sc3ccc(NC(=O)C4CC4)cc3)n2)[nH]n1 [Tozasertib]	19.9	–	76.4	–	4.1	41.4	78.1	–	–	–	1.8	–	–
O=C(CCCCCCC(=O)Nc1ccc([C@H]2O[C@@H](CSc3nc(-c4ccccc4)c(-c4ccccc4)o3)C[C@@H](c3ccc(CO)cc3)O2)cc1)NO [Tubacin]	41.9	0	73.1	–	0	7.2	76.2	–	–	–	–	–	–
CN1CCc2c(c3ccccc3n2Cc2ccc(C(=O)NO)cc2)C1.Cl [Tubastatin A HCl]	3.3	0	94.8	-0.5	0	2.4	92.1	-1	–	–	–	–	–
CN1CCc2c(c3ccccc3n2Cc2ccc(C(=O)NO)cc2)C1.O=C(O)C(F)(F)F [Tubastatin A TFA]	17.4	0	88.8	-0.1	0	24.4	86.5	-0.1	–	–	–	–	–
CN1CCc2c(c3ccccc3n2Cc2ccc(C(=O)NO)cc2)C1 [Tubastatin A]	8.2	0	92.6	–	0	3.2	92.9	–	–	–	–	–	–
Nc1cc(F)ccc1NC(=O)c1ccc(CNC(=O)/C=C/c2cccnc2)cc1 [Tucidinostat]	73.3	7	44	–	6.5	59.3	25.1	–	607 nM	1660 nM	–	–	–
CCCCNNC(=O)c1ccc(Br)cc1 [UF010]	21.1	2	67.1	-2.5	2.1	22.5	74.9	-2.4	–	–	–	2320 nM	1280 nM
COc1cc2nc(N3CCCC3)nc(NCCCCCN3CCCC3)c2cc1OC [UNC0379]	39.7	1.9	76.2	-0.4	3.2	30.1	55.3	-2.5	–	–	–	–	–
COc1cc2c(NC3CCN(C(C)C)CC3)nc(C3CCCCC3)nc2cc1OCCCN1CCCC1 [UNC0638]	19.7	1.9	59.1	–	2	21.3	73.8	–	3370 nM	1540 nM	–	–	–
COc1cc2c(NC3CCN(C(C)C)CC3)nc(N3CCC(F)(F)CC3)nc2cc1OCCCN1CCCC1 [UNC0642]	0.1	0	99.3	–	0	7.2	94	–	–	–	–	–	–
